Source: patent US9757400B2, “Peptidomimetic inhibitors of post-proline cleaving enzymes” (Trustees of Tufts College, priority 2001, dated 2017)

Assays:
zucker obese rats = test: Oral glucose tolerance test (oral glucose challenge) in zucker rats; assay type: in vivo, rat; settings: oral 0.035 mg/kg or 0.35 mg/kg, oral glucose tolerance test within an hour, saline control
Experimental: In these “acute” experiments zucker obese and zucker lean rats were orally administered either 0.035 mg/kg (low dose) or 0.35 mg/kg (high dose) of cyclohexyl-gly boro ala and then subjected to an oral glucose tolerance test within an hour. Each set of experiments was also performed using saline as a control.

DPPIV [1] = biological target: DPPIV (Homo sapiens, UniProt P27487); test: Inhibitor inactivation at pH 8 (time course, DPPIV inhibition read-out); assay type: biochemical; settings: pre-incubated at pH 8 (7.5-8) for 0, 60, 120, 180 minutes; compared with His-bAla, Ala-bAla, Phg-bAla
Experimental: In this experiment stock solutions of inhibitors (His-bAla, Ala-bAla, Phg-bAla and Cyclohexylglycine-bAla) were prepared at pH 1-2. These stock solutions were pre-incubated at pH 8 as follows: first, 1:10 dilutions into a buffer (0.1 M HEPES pH 8, 0.14 M NaCl) were performed; secondly, the pH was measured after dilution and varied for different inhibitors between 7.5 and 8; and thirdly, incubations at this pH were performed for 0, 60, 120, 180 minutes. Following incubation, 1:10 serial dilutions of inhibitors in buffer and 1:10 dilution of inhibitors into Enzyme (DPPIV) in buffer were made. The inhibitors were pre-incubated with enzyme for 10 minutes to account for slow binding and substrate (H-Ala-Pro-paranitoranalide) was added at a concentration of approx.=KM (17 μM). Absorbances at 410 nm were recorded for all inhibitors after 30 minutes.

DPPIV [2] = biological target: T1, DPPIV (Rattus norvegicus, UniProt P14740); test: DPPIV assays on serum samples from treated rats; assay type: in vivo; settings: 1 hour after treatment versus before
T1 construct: from tissue; host or cells: rat serum
Experimental: Four rats were used in this experiment: two females (#3 and #9) and two males (#10 and #11). Blood and plasma samples were collected from rats 1 hour after being treated with Cyclohexylglycine-boroAla. The collected serum samples were evaluated for DPPIV activity of Cyclohexylglycine-boroAla as follows: • 2 mg of Ala-Pro-paranitroanalide (substrate) was dissolved in 20 ml 0.1 M HEPES pH 8, 0.14 M NaCl (buffer). • Serum samples were diluted into substrate solution in the wells of a microtiter plate. For each sample, 10 uL of serum was diluted into 150 μL of substrate. • A reading of the A410 in each well was recorded immediately after the dilution of serum into substrate, and again after approximately 1 hour. The time of data acquisition for each reading is recorded in the data file by the microplate reader software.
The rate of absorbance change was obtained by subtracting the first reading from the second and dividing by the reaction time to give DeltaA410/hr. The DPPIV activity was plotted in units of DeltaA410 hr^−1 μL^−1.

[3] = pH around neutral, due to cyclization, inventors' previous work; cited from earlier work
soluble DPIV = soluble DPIV (Homo sapiens, UniProt P27487); settings: inventors' previous work; cited from earlier work
[4] = Cyclization equilibrium, ratio of [cyclic]:[open] forms; assay type: physicochemical; settings: at equilibrium at pH 7.0
Text: In this example, Xaa-boro-Ala analogs containing bulky R substituent will be constructed to prevent cyclization and increase biological activity. […] The open, active, inhibitory chain species is favored at low pH while the cyclized structure is favored at high pH. Also, the reaction is fully reversible: the open chain becomes predominate at low pH. The open chain to cyclic species reaction involves a trans to cis isomerization of the proline and the formation of a new N—B bond. […] This means that less than 1% Pro-boroPro and less than 0.1% of Val-boroPro exists as the open chain, inhibitory species, at equilibrium at pH 7.0.
One feature of the present invention relates to the equilibrium constant for cyclization. […] In addition, the cis-trans isomerization rate, and therefore the rates of cyclization and uncyclization, are also much faster for compounds of the present invention. This feature is attributed by the inventors to a bulky substituent effect, e.g. where R in FIG. 8 represents a cyclohexyl.

T1 sequence (P14740 37-767 limits assumed): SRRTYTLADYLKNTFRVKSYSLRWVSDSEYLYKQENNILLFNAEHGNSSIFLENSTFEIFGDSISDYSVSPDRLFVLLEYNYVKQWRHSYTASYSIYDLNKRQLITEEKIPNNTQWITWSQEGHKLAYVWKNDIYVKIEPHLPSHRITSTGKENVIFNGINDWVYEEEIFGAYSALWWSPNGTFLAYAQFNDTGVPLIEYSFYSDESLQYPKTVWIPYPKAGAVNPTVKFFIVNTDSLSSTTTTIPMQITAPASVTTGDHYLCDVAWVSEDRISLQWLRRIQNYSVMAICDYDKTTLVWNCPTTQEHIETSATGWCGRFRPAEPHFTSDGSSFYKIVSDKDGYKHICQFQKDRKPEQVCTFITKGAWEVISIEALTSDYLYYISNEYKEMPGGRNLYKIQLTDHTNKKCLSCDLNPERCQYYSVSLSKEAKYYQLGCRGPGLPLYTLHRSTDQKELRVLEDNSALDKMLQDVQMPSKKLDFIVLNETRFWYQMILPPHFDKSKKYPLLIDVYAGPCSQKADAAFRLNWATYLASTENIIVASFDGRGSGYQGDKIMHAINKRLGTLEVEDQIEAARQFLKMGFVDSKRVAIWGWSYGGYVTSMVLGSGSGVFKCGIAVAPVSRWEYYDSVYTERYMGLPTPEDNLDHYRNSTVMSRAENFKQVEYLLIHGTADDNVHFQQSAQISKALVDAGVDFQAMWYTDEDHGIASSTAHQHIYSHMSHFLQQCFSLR
Sequence of DPPIV (Homo sapiens, UniProt P27487) (P27487 whole entry, species assumed): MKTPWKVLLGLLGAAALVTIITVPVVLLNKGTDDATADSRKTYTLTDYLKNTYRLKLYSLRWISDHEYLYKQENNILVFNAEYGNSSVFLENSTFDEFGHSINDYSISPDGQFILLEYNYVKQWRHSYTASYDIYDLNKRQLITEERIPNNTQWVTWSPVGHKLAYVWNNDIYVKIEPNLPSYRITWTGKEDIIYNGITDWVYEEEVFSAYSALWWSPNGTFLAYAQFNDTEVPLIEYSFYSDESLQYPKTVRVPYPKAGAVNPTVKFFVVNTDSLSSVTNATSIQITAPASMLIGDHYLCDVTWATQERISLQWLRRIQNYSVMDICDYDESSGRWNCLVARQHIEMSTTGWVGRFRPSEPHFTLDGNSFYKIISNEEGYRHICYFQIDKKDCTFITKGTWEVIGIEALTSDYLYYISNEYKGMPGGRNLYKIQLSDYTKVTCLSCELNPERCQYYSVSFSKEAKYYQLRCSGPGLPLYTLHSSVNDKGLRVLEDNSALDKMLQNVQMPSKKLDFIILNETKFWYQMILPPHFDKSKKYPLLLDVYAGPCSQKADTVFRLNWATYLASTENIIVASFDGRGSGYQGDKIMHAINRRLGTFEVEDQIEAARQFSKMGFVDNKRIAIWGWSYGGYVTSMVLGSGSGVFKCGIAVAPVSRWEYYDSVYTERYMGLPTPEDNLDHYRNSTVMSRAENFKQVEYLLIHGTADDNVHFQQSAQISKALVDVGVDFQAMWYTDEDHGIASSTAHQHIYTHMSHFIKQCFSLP
Sequence of soluble DPIV (P27487 39-766 limits assumed): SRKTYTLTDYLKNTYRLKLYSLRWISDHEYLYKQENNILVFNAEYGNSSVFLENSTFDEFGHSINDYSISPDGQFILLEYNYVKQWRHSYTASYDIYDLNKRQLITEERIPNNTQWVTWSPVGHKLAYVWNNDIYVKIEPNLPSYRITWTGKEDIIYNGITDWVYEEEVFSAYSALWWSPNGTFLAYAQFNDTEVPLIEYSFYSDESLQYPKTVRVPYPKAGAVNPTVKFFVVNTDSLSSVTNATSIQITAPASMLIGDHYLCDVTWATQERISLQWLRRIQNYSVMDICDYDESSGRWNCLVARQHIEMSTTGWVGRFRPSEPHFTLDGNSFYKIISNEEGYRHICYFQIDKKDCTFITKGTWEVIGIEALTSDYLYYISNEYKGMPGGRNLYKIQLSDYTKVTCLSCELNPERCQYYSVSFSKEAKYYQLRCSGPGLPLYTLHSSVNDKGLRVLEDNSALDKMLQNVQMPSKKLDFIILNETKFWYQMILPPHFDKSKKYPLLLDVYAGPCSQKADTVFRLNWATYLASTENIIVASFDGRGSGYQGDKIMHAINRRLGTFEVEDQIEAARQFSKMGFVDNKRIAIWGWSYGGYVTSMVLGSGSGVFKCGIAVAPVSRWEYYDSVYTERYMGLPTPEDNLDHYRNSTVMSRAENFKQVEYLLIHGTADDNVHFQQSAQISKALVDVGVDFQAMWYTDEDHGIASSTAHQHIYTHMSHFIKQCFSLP

Row | Structure (SMILES) | loss of inhibitory activity in aqueous solution [3] | fraction existing as the open chain, inhibitory species [4] | further results
1 | CC(NC(=O)C(N)C1CCCCC1)B(O)O (centres unmarked) [Cyclohexylglycine-boroAla, Cyclohexylglycine boroAla] | – | – | blood sugar in oral glucose challenge after oral administration (zucker obese rats): orally active and clearly lowers blood sugar; pH-time dependant inhibition (inactivation at pH 8) (DPPIV [1]): does not show significant pH-time dependant inhibition; DPPIV enzyme activity in serum (DPPIV [2]): significantly decreased
2 | CC(N)C(=O)N1CCCC1B(O)O [L-Ala-D,L-boroPro] | lost some of their inhibitory activity rapidly | – | –
3 | O=C(C1CCCN1)N1CCCC1B(O)O [L-Pro-D,L-boroPro] | lost some of their inhibitory activity rapidly | – | inhibition of the catalytic activity of soluble DPIV (soluble DPIV): potent inhibitors
4 | O=C(C1CCCN1)N1CCCC1B(O)O (centres unmarked) [Pro-boroPro] | – | less than 1% | –
5 | CC(C)[C@H](N)C(=O)N1CCC[C@H]1B(O)O [Val-boroPro] | – | less than 0.1% | –
